Test results from ChEMBL document CHEMBL1148874, “Design, synthesis, and anti-HIV activity of 2',3'-didehydro-2',3'-dideoxyuridine (d4U), 2',3'-dideoxyuridine (ddU) phosphoramidate 'ProTide' derivatives” (Bioorg Med Chem Lett, 2007).
pEC50: −log10 of the molar value.

Tests used:
[1] = system: Human immunodeficiency virus 2; assay: Inhibition of HIV2-induced cytopathogenicity in CEM/0 cells; assay type: functional, organism-based; details: Human immunodeficiency virus 2, CCRF-CEM
[2] = Cytotoxicity against CEM/0 cells; assay type: cell-based, CCRF-CEM; details: human
[3] = system: Human immunodeficiency virus 1; assay: Inhibition of HIV1-induced cytopathogenicity in CEM/0 cells; assay type: functional, organism-based; details: Human immunodeficiency virus 1, CCRF-CEM

Row | Compound | pEC50 [1] | CC50 [2] [µM] | pEC50 [3]
1 | O=c1ccn([C@H]2CC[C@@H](CO)O2)c(=O)[nH]1 | < 3.60 | > 250 | < 3.60
2 | COC(=O)[C@@H](C)NP(=O)(OC[C@@H]1C=C[C@H](n2ccc(=O)[nH]c2=O)O1)Oc1ccccc1 (some centres not stated) | < 5.00 | 96.6 | < 4.30
3 | C[C@@H](NP(=O)(OC[C@@H]1C=C[C@H](n2ccc(=O)[nH]c2=O)O1)Oc1cccc2ccccc12)C(=O)OCc1ccccc1 (some centres not stated) | 4.60 | 100 | 4.60
4 | CCOC(=O)[C@@H](C)NP(=O)(OC[C@@H]1CC[C@H](n2ccc(=O)[nH]c2=O)O1)Oc1ccccc1 (some centres not stated) | 4.03 | > 250 | 4.36
5 | CCOC(=O)[C@@H](C)NP(=O)(OC[C@@H]1C=C[C@H](n2ccc(=O)[nH]c2=O)O1)Oc1ccccc1 (some centres not stated) | < 4.30 | 212 | < 4.30
6 | COC(=O)[C@@H](C)NP(=O)(OC[C@@H]1CC[C@H](n2ccc(=O)[nH]c2=O)O1)Oc1ccccc1 (some centres not stated) | ≤ 4.30 | 121 | 4.44
7 | C[C@@H](NP(=O)(OC[C@@H]1CC[C@H](n2ccc(=O)[nH]c2=O)O1)Oc1cccc2ccccc12)C(=O)OCc1ccccc1 (some centres not stated) | 4.70 | 96.9 | 4.82
8 | C[C@@H](NP(=O)(OC[C@@H]1C=C[C@H](n2ccc(=O)[nH]c2=O)O1)Oc1ccccc1)C(=O)OC(C)(C)C (some centres not stated) | < 3.60 | > 250 | < 3.60
9 | C[C@@H](NP(=O)(OC[C@@H]1CC[C@H](n2ccc(=O)[nH]c2=O)O1)Oc1ccccc1)C(=O)OC(C)(C)C (some centres not stated) | < 3.60 | > 250 | < 3.60
10 | O=c1ccn([C@H]2C=C[C@@H](CO)O2)c(=O)[nH]1 | < 4.30 | 207 | < 4.30
11 | Cc1cn([C@H]2C=C[C@@H](CO)O2)c(=O)[nH]c1=O [STAVUDINE] | 6.11 | 174 | –
